Key:
Melanocortin receptor 3 = Melanocortin receptor 3 (Homo sapiens, UniProt P41968); assay type: cell membranes, Membrane; conditions: hek293; further: in other assays of this panel Not Active means under 50% inhibition at 10 µM
[1] = target: T1, Vasoactive intestinal polypeptide receptor 1 (Homo sapiens, UniProt P32241); assay type: cell membranes, Membrane; conditions: ht-29; further: in other assays of this panel Not Active means under 50% inhibition at 10 µM
T1 sequence (P32241 whole entry): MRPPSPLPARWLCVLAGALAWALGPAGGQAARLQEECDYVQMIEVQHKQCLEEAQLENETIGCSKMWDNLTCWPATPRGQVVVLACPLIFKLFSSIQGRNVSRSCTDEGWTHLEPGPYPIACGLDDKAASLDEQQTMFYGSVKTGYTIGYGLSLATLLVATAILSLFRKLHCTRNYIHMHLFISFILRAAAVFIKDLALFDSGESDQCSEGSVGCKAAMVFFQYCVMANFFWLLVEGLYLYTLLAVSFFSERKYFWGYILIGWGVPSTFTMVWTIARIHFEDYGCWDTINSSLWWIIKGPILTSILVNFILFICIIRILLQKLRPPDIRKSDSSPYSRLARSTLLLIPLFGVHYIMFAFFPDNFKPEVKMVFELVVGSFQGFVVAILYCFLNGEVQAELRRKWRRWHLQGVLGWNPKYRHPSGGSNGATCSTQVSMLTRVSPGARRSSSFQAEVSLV

Acetylcholinesterase = Acetylcholinesterase (Homo sapiens, UniProt P22303); assay: DRUGMATRIX: Acetylcholinesterase enzyme inhibition (substrate: acetylthiocholine); assay type: cell-based, HEK293; conditions: Not Active = under 50% inhibition at 10 µM
Glucocorticoid receptor = target: T2, Glucocorticoid receptor (Homo sapiens, UniProt P04150); conditions: hela s3; further: in other assays of this panel Not Active means under 50% inhibition at 10 µM
T2 sequence (P04150 whole entry): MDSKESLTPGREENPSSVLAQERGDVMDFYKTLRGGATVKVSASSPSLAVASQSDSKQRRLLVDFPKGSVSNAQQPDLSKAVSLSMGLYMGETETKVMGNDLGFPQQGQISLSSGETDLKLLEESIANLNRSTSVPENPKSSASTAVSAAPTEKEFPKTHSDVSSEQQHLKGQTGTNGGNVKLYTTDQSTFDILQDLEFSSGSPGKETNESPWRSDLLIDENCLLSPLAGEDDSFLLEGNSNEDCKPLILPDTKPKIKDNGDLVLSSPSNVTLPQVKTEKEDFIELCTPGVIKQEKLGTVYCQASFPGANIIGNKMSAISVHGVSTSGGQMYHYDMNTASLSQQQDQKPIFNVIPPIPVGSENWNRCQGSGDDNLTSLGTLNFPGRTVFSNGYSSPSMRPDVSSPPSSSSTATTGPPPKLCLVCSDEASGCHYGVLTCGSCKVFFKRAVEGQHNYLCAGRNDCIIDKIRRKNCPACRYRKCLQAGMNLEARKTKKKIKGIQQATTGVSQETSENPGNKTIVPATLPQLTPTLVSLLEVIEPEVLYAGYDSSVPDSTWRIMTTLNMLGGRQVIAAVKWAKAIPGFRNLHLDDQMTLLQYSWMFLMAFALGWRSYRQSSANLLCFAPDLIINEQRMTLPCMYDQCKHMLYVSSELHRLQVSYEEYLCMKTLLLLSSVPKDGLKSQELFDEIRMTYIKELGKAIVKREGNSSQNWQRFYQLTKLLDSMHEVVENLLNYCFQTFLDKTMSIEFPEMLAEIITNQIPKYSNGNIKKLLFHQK

Estrogen receptor beta = Estrogen receptor beta (Homo sapiens, UniProt Q92731); conditions: sf9; further: in other assays of this panel Not Active means under 50% inhibition at 10 µM
Interstitial collagenase = target: T3, Interstitial collagenase (Homo sapiens, UniProt P03956); assay type: tissue-based, Rheumatoid synovial fibroblasts
T3 sequence (P03956 whole entry): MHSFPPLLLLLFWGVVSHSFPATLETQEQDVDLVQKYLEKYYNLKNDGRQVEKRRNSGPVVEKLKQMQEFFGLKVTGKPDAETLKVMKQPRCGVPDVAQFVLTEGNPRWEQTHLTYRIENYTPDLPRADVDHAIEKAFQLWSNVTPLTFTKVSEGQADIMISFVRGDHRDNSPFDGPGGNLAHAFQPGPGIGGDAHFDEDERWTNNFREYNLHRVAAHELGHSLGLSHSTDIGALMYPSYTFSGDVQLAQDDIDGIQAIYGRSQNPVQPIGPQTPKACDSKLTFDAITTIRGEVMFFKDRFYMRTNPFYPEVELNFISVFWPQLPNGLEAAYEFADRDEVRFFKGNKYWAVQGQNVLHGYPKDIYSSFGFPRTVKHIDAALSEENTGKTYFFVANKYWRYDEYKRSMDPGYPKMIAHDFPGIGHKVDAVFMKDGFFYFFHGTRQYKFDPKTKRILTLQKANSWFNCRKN

Measured: IC50

Sequence of Melanocortin receptor 3 (P41968 whole entry): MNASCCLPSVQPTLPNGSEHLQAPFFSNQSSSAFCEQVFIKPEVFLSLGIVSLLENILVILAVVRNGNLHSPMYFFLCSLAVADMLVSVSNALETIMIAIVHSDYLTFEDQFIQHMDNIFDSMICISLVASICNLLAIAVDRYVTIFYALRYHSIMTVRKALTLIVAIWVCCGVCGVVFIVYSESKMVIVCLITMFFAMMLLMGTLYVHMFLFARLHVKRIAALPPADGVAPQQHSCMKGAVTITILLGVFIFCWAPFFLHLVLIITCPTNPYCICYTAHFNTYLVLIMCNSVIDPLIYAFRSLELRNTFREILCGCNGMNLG
Sequence of Estrogen receptor beta (Q92731 whole entry): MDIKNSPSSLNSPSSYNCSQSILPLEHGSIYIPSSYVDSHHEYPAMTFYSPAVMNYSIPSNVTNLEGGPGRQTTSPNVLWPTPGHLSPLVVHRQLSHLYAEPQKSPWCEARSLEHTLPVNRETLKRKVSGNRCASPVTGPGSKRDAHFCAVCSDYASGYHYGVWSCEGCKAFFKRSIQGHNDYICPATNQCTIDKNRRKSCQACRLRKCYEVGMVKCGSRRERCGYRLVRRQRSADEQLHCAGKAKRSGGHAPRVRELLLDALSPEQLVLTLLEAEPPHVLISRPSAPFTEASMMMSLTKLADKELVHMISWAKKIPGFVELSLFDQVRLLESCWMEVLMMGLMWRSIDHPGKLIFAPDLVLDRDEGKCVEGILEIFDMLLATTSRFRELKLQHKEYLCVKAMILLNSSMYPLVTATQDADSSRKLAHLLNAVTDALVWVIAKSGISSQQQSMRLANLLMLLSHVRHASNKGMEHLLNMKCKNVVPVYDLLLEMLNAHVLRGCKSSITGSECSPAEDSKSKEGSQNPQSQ
Sequence of Acetylcholinesterase (P22303 whole entry): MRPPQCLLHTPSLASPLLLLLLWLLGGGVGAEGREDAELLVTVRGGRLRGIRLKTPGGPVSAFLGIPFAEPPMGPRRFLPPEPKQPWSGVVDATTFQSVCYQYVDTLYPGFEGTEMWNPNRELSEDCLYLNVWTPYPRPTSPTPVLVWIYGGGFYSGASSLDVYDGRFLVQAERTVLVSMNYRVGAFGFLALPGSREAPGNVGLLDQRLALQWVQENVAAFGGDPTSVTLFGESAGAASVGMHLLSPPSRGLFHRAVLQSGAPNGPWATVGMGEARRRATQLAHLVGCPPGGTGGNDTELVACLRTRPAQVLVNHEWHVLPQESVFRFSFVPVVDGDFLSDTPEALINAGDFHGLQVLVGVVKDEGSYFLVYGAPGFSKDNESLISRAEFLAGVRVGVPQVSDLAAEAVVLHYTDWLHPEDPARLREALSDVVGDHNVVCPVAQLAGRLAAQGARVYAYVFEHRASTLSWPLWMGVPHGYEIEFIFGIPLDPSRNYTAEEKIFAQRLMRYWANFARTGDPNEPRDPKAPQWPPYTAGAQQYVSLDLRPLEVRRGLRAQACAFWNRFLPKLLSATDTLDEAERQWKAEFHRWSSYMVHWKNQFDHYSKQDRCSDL

O=C(c1ccccc1Cl)N1CCC(Cc2ccccc2)CC1
Not Active: Melanocortin receptor 3 | [1] | Acetylcholinesterase; hek293 | Glucocorticoid receptor | Estrogen receptor beta | Interstitial collagenase

CCOC(=O)[C@H](CCc1ccccc1)N[C@@H](C)C(=O)N1Cc2ccccc2C[C@H]1C(=O)O
Not Active: Melanocortin receptor 3 | [1] | Acetylcholinesterase; hek293 | Glucocorticoid receptor | Estrogen receptor beta | Interstitial collagenase

Cc1cccc(Nc2ccccc2C(=O)O)c1C [MEFENAMIC ACID]
Not Active: Melanocortin receptor 3 | [1] | Acetylcholinesterase; hek293 | Glucocorticoid receptor | Estrogen receptor beta | Interstitial collagenase

CC[C@H](C)C(=O)O[C@H]1C[C@H](O)C=C2C=C[C@H](C)[C@H](CC[C@@H](O)C[C@@H](O)CC(=O)O)[C@H]21 [PRAVASTATIN]
Not Active: Melanocortin receptor 3 | [1] | Acetylcholinesterase; hek293 | Glucocorticoid receptor | Estrogen receptor beta | Interstitial collagenase

N[C@@H](Cc1ccc(F)cc1)C(=O)O
Not Active: Melanocortin receptor 3 | [1] | Acetylcholinesterase; hek293 | Glucocorticoid receptor | Estrogen receptor beta | Interstitial collagenase

C[C@]12C/C(=C/O)C(=O)C[C@@H]1CC[C@@H]1[C@@H]2CC[C@@]2(C)[C@H]1CC[C@]2(C)O [OXYMETHOLONE]
Not Active: Melanocortin receptor 3 | [1] | Acetylcholinesterase; hek293 | Glucocorticoid receptor | Estrogen receptor beta | Interstitial collagenase

Clc1cc2c(cc1Cl)Oc1cc(Cl)c(Cl)cc1O2 [2,3,7,8-TETRACHLORODIBENZO-P-DIOXIN]
Not Active: Melanocortin receptor 3 | [1] | Acetylcholinesterase; hek293 | Glucocorticoid receptor | Estrogen receptor beta | Interstitial collagenase

O=C(/C=C/c1ccc(O)c(O)c1)OCCc1ccccc1 [CAFFEIC ACID PHENETHYL ESTER]
Not Active: Melanocortin receptor 3 | [1] | Acetylcholinesterase; hek293 | Glucocorticoid receptor | Estrogen receptor beta | Interstitial collagenase

CCCCCC[C@H]1C(=O)O[C@H](C)[C@H](NC(=O)c2cccc(NC=O)c2O)C(=O)O[C@@H](C)[C@@H]1OC(=O)CC(C)C [ANTIMYCIN A]
Not Active: Melanocortin receptor 3 | [1] | Acetylcholinesterase; hek293 | Glucocorticoid receptor | Estrogen receptor beta | Interstitial collagenase

Oc1ccccc1O [CATECHOL]
Not Active: Melanocortin receptor 3 | [1] | Acetylcholinesterase; hek293 | Glucocorticoid receptor | Estrogen receptor beta | Interstitial collagenase

Cc1c(F)c(N2CCNC(C)C2)cc2c1c(=O)c(C(=O)O)cn2C1CC1 (stereo unspecified) [GREPAFLOXACIN]
Not Active: Melanocortin receptor 3 | [1] | Acetylcholinesterase; hek293 | Glucocorticoid receptor | Estrogen receptor beta | Interstitial collagenase

CO[C@H]1[C@@H](O)[C@H](N)[C@@H](O[C@H]2O[C@H]([C@H](C)N)CC[C@H]2N)[C@H](O)[C@@H]1N(C)C(=O)CN [ASTROMICIN]
Not Active: Melanocortin receptor 3 | [1] | Acetylcholinesterase; hek293 | Glucocorticoid receptor | Estrogen receptor beta | Interstitial collagenase

COc1ccc2cc(CCC(C)=O)ccc2c1 [NABUMETONE]
Not Active: Melanocortin receptor 3 | [1] | Acetylcholinesterase; hek293 | Glucocorticoid receptor | Estrogen receptor beta | Interstitial collagenase

Cc1c(N(C)CS(=O)(=O)[O-])c(=O)n(-c2ccccc2)n1C.[Na+] [DIPYRONE SODIUM]
Not Active: Melanocortin receptor 3 | [1] | Acetylcholinesterase; hek293 | Glucocorticoid receptor | Estrogen receptor beta | Interstitial collagenase

OCCN1CCN(CCCN2c3ccccc3Sc3ccc(Cl)cc32)CC1 [PERPHENAZINE]
Not Active: Melanocortin receptor 3 | [1] | Acetylcholinesterase; hek293 | Glucocorticoid receptor | Estrogen receptor beta | Interstitial collagenase

CC[C@]1(O)CC[C@H]2[C@@H]3CCC4=CCCC[C@@H]4[C@H]3CC[C@@]21C
Not Active: Melanocortin receptor 3 | [1] | Glucocorticoid receptor | Estrogen receptor beta | Interstitial collagenase
6.5 µM: Acetylcholinesterase; read-out: IC50

CCOC(=O)n1ccn(C)c1=S [CARBIMAZOLE]
Not Active: Melanocortin receptor 3 | [1] | Acetylcholinesterase; hek293 | Glucocorticoid receptor | Estrogen receptor beta | Interstitial collagenase

C[C@H]([C@](O)(Cn1cncn1)c1ccc(F)cc1F)S(C)(=O)=O [GENACONAZOLE]
Not Active: Melanocortin receptor 3 | [1] | Acetylcholinesterase; hek293 | Glucocorticoid receptor | Estrogen receptor beta | Interstitial collagenase

CCOC(=O)C1=C(C)NC(C)=C(C(=O)OC)C1c1cccc(Cl)c1Cl (stereo unspecified) [FELODIPINE]
Not Active: Melanocortin receptor 3 | [1] | Acetylcholinesterase; hek293 | Glucocorticoid receptor | Estrogen receptor beta | Interstitial collagenase

C[C@@H]1CC[C@H]2[C@@H](C)C(=O)O[C@@H]3O[C@@]4(C)CC[C@@H]1[C@]32OO4 [ARTEMISININ]
Not Active: Melanocortin receptor 3 | [1] | Acetylcholinesterase; hek293 | Glucocorticoid receptor | Estrogen receptor beta | Interstitial collagenase

Nn1nnc2ccccc21
Not Active: Melanocortin receptor 3 | [1] | Acetylcholinesterase; hek293 | Glucocorticoid receptor | Estrogen receptor beta | Interstitial collagenase

Reference: ChEMBL document CHEMBL1909046, “DrugMatrix in vitro pharmacology data”
